Series [1] relates to MCF-7. On the set-up: method as in earlier work. The following applies: MCF-7 tumour cells; ref 6 (Alegaon et al.); cited from earlier work.
Series [2] has as its system A549. On the set-up: method as in earlier work. Particulars: A549 tumour cells; ref 6 (Alegaon et al.); cited from earlier work.
Series [3] deals with human lung carcinoma (A549). The experiment in a line: MTT antiproliferative assay, A549 cells. Type of series: cell-based. Particulars: for IC50: Homo sapiens, MTT, 48 h exposure, read-out: IC50 [µg/ml] ± SEM, A549; for SI [IC50BJ/IC50], A549: safety index = IC50 normal cells (BJ)/IC50 A549. How it is done:
(§1) The experiment was carried out using normal human skin fibroblasts (BJ) and tumour cell lines: human lung carcinoma (A549), human hepatocellular carcinoma (HepG2), and human breast adenocarcinoma (MCF-7). All cell lines were obtained from ATCC (American Type Culture Collection, England, UK) and cultured in the appropriate, recommended by ATCC, culture medium, additionally supplemented with 10% foetal bovine serum and antibiotics: 100 U/ml penicillin and 100 µg/ml streptomycin. The cells were maintained at 37 °C in a humidified atmosphere of 5% CO2 and 95% air. Antiproliferative activity of the new compounds was assessed by, commonly used for this purpose, colorimetric MTT assay. Cells with active mitochondrial dehydrogenases reduced intracellularly the tetrazolium dye into purple formazan, which is proportional to the number of viable cells. The cells were seeded in 96-multiwell plates in 100 μl of the appropriate complete culture medium at a concentration of 7 × 10^3 cells/well in the case of BJ cells (normal fibroblasts), 1 × 10^4 cells/well in the case of A549 cells (lung cancer), 1.5 × 10^4 cells/well in the case of HepG2 cells (liver cancer), and 2 × 10^4 cells/well in the case of MCF-7 cells (breast cancer) so as to obtain 60–70% confluent culture after 24 h of incubation at 37 °C – the cells are then in the log (logarithmic) phase, during a period of active proliferation, but still have an unoccupied space to divide. Afterwards, the culture medium was discarded and replaced with 100 µl of different concentrations of new tested compounds and reference antiproliferative agent: irinotecan. The stock solutions of the compounds were prepared in DMSO, and solvent control was being tested concurrently to exclude toxicity attributed to DMSO. Ten serial two-fold dilutions using culture medium were performed to prepare different concentrations of the tested compounds, and the highest tested concentration was 200 µg/ml. Untreated cells (maintained in the complete culture medium) served as a negative control. After exposing cells for 48 h to the tested derivatives, the MTT assay was performed as described earlier. Three independent experiments (n = 3) were performed in a quadruplicate. The obtained data were analysed using GraphPad Prism 5, version 5.03 software (La Jolla, CA). […] Moreover, safety index (SI) was calculated using the following formula: SI=IC50normal cells (BJ)/IC50cancer cells
(In general: Formazan colour is commonly taken as a measure of viable cells.)

Series [4] has as its system human hepatocellular carcinoma (HepG2). The series is described as follows: MTT antiproliferative assay, HepG2 cells. Type of series: cell-based. Particulars: for IC50: Homo sapiens, MTT, 48 h exposure, read-out: IC50 [µg/ml] ± SEM, HepG2; for SI [IC50BJ/IC50], HepG2: safety index = IC50 normal cells (BJ)/IC50 HepG2. How it is done:
as §1

Series [5] relates to human breast adenocarcinoma (MCF-7). The experiment in a line: MTT antiproliferative assay, MCF-7 cells. The class given is cell-based. Particulars: for IC50: Homo sapiens, MCF7, MTT, 48 h exposure, read-out: IC50 [µg/ml] ± SEM, MCF-7; for SI [IC50BJ/IC50], MCF-7: safety index = IC50 normal cells (BJ)/IC50 MCF-7. How it is done:
as §1

The subject of series [6] is normal human skin fibroblasts (BJ). The experiment in a line: MTT assay, normal fibroblasts BJ. Type of series: cell-based. The following applies: Skin fibroblast, 48 h exposure, read-out: IC50 [µg/ml] ± SEM, BJ. As for the experimental part:
as §1

Series [7] has as its system Staphylococcus aureus ATCC 25923. The experiment in a line: Broth microdilution MIC, S. aureus ATCC 25923. The class given is cell-based. The following applies: 35 °C; for Minimal inhibitory concentration MIC, Staphylococcus aureus 25923: 18 h; for MIC: Staphylococcus aureus, ATCC25923, 18 h, read-out: Minimal inhibitory concentration MIC, Staphylococcus aureus 25923. As for the experimental part: (§2) Newly synthesised compounds’ antibacterial activities were tested in vitro against six aerobic bacteria reference strains: three Gram-positive (Staphylococcus aureus ATCC 25923, methicillin-resistant S. aureus MIKROBANK 14.001 reference strain from National Medicines Institute in Warsaw, and Staphylococcus epidermidis ATCC 12228) and three Gram-negative (Escherichia coli ATCC 25922, Proteus mirabilis ATCC 12453, and Pseudomonas aeruginosa ATCC 9027).
(§3) Bacterial cell suspensions equivalent to 0.5 McFarland (1.5 × 10^8 CFU/ml) were prepared in 0.85% sterile saline. Tested compounds’ stock solutions (50 mg/ml) were dissolved in dimethyl sulphoxide (DMSO).
(§4) Bacteria strain susceptibility to tested agents was determined by broth microdilution method. Broth microdilution method was carried out in accordance with Clinical and Laboratory Standards Institute recommendations and was used as reference method. Mueller–Hinton broth containing two-fold dilutions of the tested substances (at concentrations ranging from 3.91 to 1000 µg/ml) was used to determine their minimal inhibitory concentration (MIC) which is the lowest concentration of an antibacterial that will inhibit the visible growth of a microorganism after 18 h of incubation). Mueller–Hinton broth is recommended as the medium of choice for susceptibility testing of commonly isolated, rapidly growing aerobic, or facultative organisms. Gentamicin (KRKA, Slovenia), an aminoglycoside antibiotic active against a wide range of human bacterial infections, mostly Gram-negative bacteria including Pseudomonas, Proteus, Serratia, and the Gram-positive Staphylococcus, was used as a control antibacterial agent (at concentration from 0.12 µg to 1000 µg).
(§5) Tested compounds two-fold dilutions in Mueller–Hinton broth without bacteria were blank control wells (incubated on equal conditions). Polystyrene trays containing 96 wells were filled with serial two-fold Mueller–Hinton broth dilutions of tested agents. Next, the broth was inoculated with 20 μl of 0.5 McFarland microbial suspension (previously diluted 1:10 by Mueller–Hinton broth). Total volume per each well was 200 μl. After incubation (at 35 °C for 18 h), bacterial cultures’ optical density was measured by microplate reader (BioTek Synergy H4 Hybrid Reader) at 600 nm. The MIC values were determined by the comparison of broth bacterial culture OD600 containing tested concentrations of examined substances to blank control wells.
Background: Dilution methods test growth across graded concentrations, often in twofold steps.

The test system of series [8] is methicillin-resistant S. aureus MIKROBANK 14.001. The experiment in a line: Broth microdilution MIC, methicillin-resistant S. aureus. The class given is cell-based, Staphylococcus aureus. The following applies: methicillin-resistant strain, 18 h, 35 °C; for MIC: Staphylococcus aureus, read-out: Minimal inhibitory concentration MIC, Staphylococcus aureus MIKROBANK 14.001. How it is done:
as §2, §3, §4, §5

For series [9], the system named is Staphylococcus epidermidis ATCC 12228. The experiment in a line: Broth microdilution MIC, S. epidermidis ATCC 12228. Type of series: cell-based. The following applies: 35 °C; for Minimal inhibitory concentration MIC, Staphylococcus epidermidis 12228: 18 h; for MIC: Staphylococcus epidermidis, ATCC12228, 18 h, read-out: Minimal inhibitory concentration MIC, Staphylococcus epidermidis 12228. How it is done:
as §2, §3, §4, §5

Series [10] concerns Escherichia coli ATCC 25922. The experiment in a line: Broth microdilution MIC, E. coli ATCC 25922. Type of series: cell-based. The following applies: ATCC25922, 18 h, 35 °C, read-out: Concentration inhibiting E. coli ATCC 25922 growth (MIC). How it is done:
as §2, §3
Bacteria strain susceptibility to tested agents was determined by broth microdilution method. Broth microdilution method was carried out in accordance with Clinical and Laboratory Standards Institute recommendations and was used as reference method. […]
Tested compounds two-fold dilutions in Mueller–Hinton broth without bacteria were blank control wells (incubated on equal conditions). […] After incubation (at 35 °C for 18 h), bacterial cultures’ optical density was measured by microplate reader (BioTek Synergy H4 Hybrid Reader) at 600 nm. The MIC values were determined by the comparison of broth bacterial culture OD600 containing tested concentrations of examined substances to blank control wells.

Where [11] appears, read: MCF-7 cells, compared to irinotecan.

Consider four molecules from publication PMC6010082, “Synthesis and in vitro antiproliferative and antibacterial activity of new thiazolidine-2,4-dione derivatives” (Journal of Enzyme Inhibition and Medicinal Chemistry, 2017).

In brackets after ≈: the same amount, converted by molar mass.

The term melting point denotes the temperature of the solid-liquid transition.

On to `COc1cc(-c2nnc(NC(=O)CC3SC(=O)NC3=O)s2)cc(OC)c1OC` (centres unmarked) [2-(2,4-dioxo-1,3-thiazolidin-5-yl)-N-[5-(3,4,5-trimethoxyphenyl)-1,3,4-thiadiazol-2-yl]acetamide], for which the “IC50, MCF-7 (literature)” value in series [1] is 15.28 µg/mL (≈ 36 µM). The “IC50, A549 (literature)” value in series [2] is 12.7 µg/mL (≈ 29.9 µM).
`O=C(C=C1SC(=O)NC1=O)Oc1ccccc1C=NNC(=O)c1cccc(Cl)c1` [Compound 18, 2-{[2-(3-Chlorobenzoyl)hydrazinylidene]methyl}phenyl (2,4-dioxo-1,3-thiazolidin-5-ylidene)acetate] had a melting point of 243 to 245 °C. Besides, in [3] (A549 cells, compared to irinotecan), the “IC50 fold lower compared to irinotecan, A549” value is “five-fold lower”. The IC50 in series [3] (A549 cells) was 8.08 ± 1.05 µg/mL (≈ 18.8 µM). Besides, the “SI [IC50BJ/IC50], A549” value in [3] stood at 1.24. Also, in series [4] (HepG2 cells, compared to irinotecan), the “IC50 fold lower compared to irinotecan, HepG2” value is recorded as “four-fold lower”. In addition, the IC50 in [4] (HepG2 cells) is 3.86 ± 1.07 µg/mL (≈ 8.98 µM). Also, the IC50 in [5] (MCF-7 cells) came to 1.59 ± 1.06 µg/mL (≈ 3.7 µM). Moreover, in series [5] (setting [11]), the “IC50 fold lower than IC50 of irinotecan, MCF-7” value is on record as 13 fold and the “SI value compared to the reference substance, MCF-7” value is recorded as “three-fold higher”. Also, the IC50 in series [6] stood at 10.1 ± 1.18 µg/mL (≈ 23.4 µM). In [7], the “Minimal inhibitory concentration MIC, Staphylococcus aureus 25923” value was found to be 62.5 µg/mL and the MIC came to 62.5 µg/mL. In [8], the MIC came to 125 µg/mL and the “Minimal inhibitory concentration MIC, Staphylococcus aureus MIKROBANK 14.001” value came out at 125 µg/mL. For the same molecule, in [9], the “Minimal inhibitory concentration MIC, Staphylococcus epidermidis 12228” value is 125 µg/mL and the MIC was found to be 125 µg/mL. For the same molecule, in series [10], the MIC was found to be 125 µg/mL.
Regarding `O=C(CC1SC(=O)NC1=O)Oc1cccc(C=NNC(=S)Nc2ccccc2)c1` (centres unmarked) [Compound 22, 3-{[2-(Phenylcarbamothioyl)hydrazinylidene]methyl}phenyl (2,4-dioxo-1,3-thiazolidin-5-yl)acetate], the melting point lay within 209 to 211 °C. In addition, in series [3] (A549 cells), the IC50 was found to be 57.3 ± 1.19 µg/mL (≈ 134 µM). In addition, the “SI [IC50BJ/IC50], A549” value in series [3] turned out to be 1.43. Further, in series [4] (HepG2 cells), the IC50 is 48.3 ± 1.07 µg/mL (≈ 113 µM). Moreover, the “SI [IC50BJ/IC50], HepG2” value in [4] was 1.69. The IC50 in series [5] (MCF-7 cells) turned out to be 72 ± 1.1 µg/mL (≈ 168 µM). Besides, in [5], the “SI [IC50BJ/IC50], MCF-7” value is recorded as 1.13. Besides, the IC50 in [6] was 81.6 ± 1.11 µg/mL (≈ 190 µM).
For `Cc1ccc(NC(=S)NN=Cc2cccc(OC(=O)CC3SC(=O)NC3=O)c2)cc1` (centres unmarked) [Compound 23, 3-[{2-[(4-Methylphenyl)carbamothioyl]hydrazinylidene}methyl]phenyl (2,4-dioxo-1,3-thiazolidin-5-yl)acetate], the melting point was in the range of 194 to 196 °C. Besides, the IC50 in series [3] (A549 cells) turned out to be 31.3 ± 1.66 µg/mL (≈ 70.8 µM). The “SI [IC50BJ/IC50], A549” value in series [3] worked out at 0.80. Further, in [4] (HepG2 cells), the IC50 came out at 15.2 ± 1.25 µg/mL (≈ 34.3 µM). Further, the “SI [IC50BJ/IC50], HepG2” value in [4] was 1.66. Moreover, in [5] (MCF-7 cells), the IC50 was 34.2 ± 1.12 µg/mL (≈ 77.2 µM). Moreover, the “SI [IC50BJ/IC50], MCF-7” value in series [5] is given as 0.74. For the same molecule, the IC50 in series [6] turned out to be 25.2 ± 1.52 µg/mL (≈ 56.9 µM). In addition, in [7], the “Minimal inhibitory concentration MIC, Staphylococcus aureus 25923” value worked out at 125 µg/mL and the MIC came out at 125 µg/mL. Further, in [8], the MIC was found to be 125 µg/mL and the “Minimal inhibitory concentration MIC, Staphylococcus aureus MIKROBANK 14.001” value came out at 125 µg/mL. In series [9], the “Minimal inhibitory concentration MIC, Staphylococcus epidermidis 12228” value was 62.5 µg/mL and the MIC turned out to be 62.5 µg/mL.
